Experimental data from patent US10463644B2, “Uses of sesquiterpene lactone compounds and their derivatives in drugs preparation” (ACCENDATECH, priority 2013, dated 2019).

System: PGE2 secreted by synoviocyte
Assay: Content of PGE2 in culture supernatant of synoviocyte of RA model rats given test compound
Format: in vivo
Settings: rat RA model, dose 30 mg/kg.2d; normal control 8.34 ± 1.29, NaCl 32.44 ± 10.32
Excerpt: Take Compound 1-50 prepared as per the method according to the present invention and employ the method provided in Reference to prepare model, group drugs and prepare culture supernatant of rat synoviocyte.
Employ the method provided in Reference to investigate the effects of the test compounds on the synoviocyte to secrete TNF-α and PGE2. Employ the method provided in Reference to investigate the effects of the test compounds on the synoviocyte to secrete IL-1β.
The experimental data of the test compound 1-50 at a dose of 30 mg/kg.2d as well as the normal control and NaCl group are as follows: […]

SMILES	Content of PGE2 in culture supernatant of synoviocyte (x ± s) [ng/mL]
C=C1C(=O)O[C@H]2[C@H]1CC[C@]1(C)O[C@@]13CC[C@@](C)(O)[C@H]23 [Compound 24]	23.63 ± 1.35
[2H][C@@]1(CN(C)C)C(=O)O[C@@H]2[C@@H]3[C@@H](CCC34CC4)C3(CC[C@H]21)CC3 [Compound 46]	24.74 ± 2.64
C=C1C(=O)O[C@H]2[C@H]1CC[C@@](C)(OC)C1CC[C@@](C)(O)[C@@H]12 (stereo partly shown) [Compound 47]	27.95 ± 3.67
C=C1C(=O)O[C@@H]2[C@@H]3[C@@H](CCC34CC4)C3(CC[C@@H]12)CC3 [Compound 26]	25.61 ± 5.41
C=C1C(=O)O[C@H]2[C@H]1CCC(C)=C1CC[C@@](C)(OC(=O)CCCc3cn(CCCCCCO)nn3)[C@@H]12 [Compound 21]	19.59 ± 3.25
C=C1C(=O)O[C@@H]2[C@H]3C(C)=CC[C@@]34O[C@@]4(C)CC[C@@H]12 [Compound 50]	19.83 ± 1.78
CN(C)C[C@@H]1C(=O)O[C@H]2[C@H]1CCC1(CC1)[C@@H]1CCC3(CC3)[C@H]21 [Compound 27]	24.75 ± 2.66
C=C1CC[C@H]2C(=C)CC[C@H]3C(=C)C(=O)O[C@@H]3[C@@H]12 [Compound 25]	26.48 ± 2.57
CN(C)C[C@@H]1C(=O)O[C@H]2[C@H]1CCC1(CC1)[C@@H]1CCC3(CC3)[C@H]21 [Compound 35]	21.54 ± 1.32
CCOC(=O)[C@@H]1CCCN1C[C@@H]1C(=O)O[C@H]2[C@H]1CCC1(CC1)[C@@H]1CCC3(CC3)[C@H]21 [Compound 29]	27.64 ± 2.37
C=C1C(=O)O[C@@H]2[C@@H]3[C@@H](CC[C@@]3(C)O)C(=C)CC[C@@H]12 [Compound 48]	26.65 ± 2.45
C=C1C(=O)O[C@@H]2[C@@H]3[C@@H](CC[C@@]3(C)O)[C@](C)(O)CC[C@@H]12 [Compound 49]	24.25 ± 1.94

Same assay, conditions: rat RA model, dose 30 mg/kg.2d; normal control 8.34 ± 1.29, NaCl 32.44 ± 10.32; 30 mg/kg

SMILES	Content of PGE2 in culture supernatant of synoviocyte (x ± s) [ng/mL]
CC1=C2CC[C@@](C)(O)[C@@H]2[C@H]2OC(=O)[C@@H](CN(C)C)[C@@H]2CC1 [Compound 23]	21.71 ± 2.32
